Measurements taken from BigSolDB 2.1.

CC(=O)Nc1ccc(OC(=O)c2ccccc2OC(C)=O)cc1
solubility (mole fraction)
Settings	278.15 K	283.15 K	288.15 K	293.15 K	298.15 K	303.15 K	308.15 K	313.15 K	318.15 K
in acetone	0.00215	0.00268	0.00353	0.00414	0.0052	0.00593	0.00792	0.0098	0.0123
in acetonitrile	0.00129	0.00153	0.00192	0.00235	0.00275	0.00378	0.00452	0.00575	0.00674
in ethanol	0.000242	0.000364	0.000497	0.000601	0.000717	0.000987	0.00125	0.00155	0.002
in ethyl acetate	0.000904	0.00109	0.00115	0.00147	0.00179	0.00216	0.00268	0.00325	0.00391
in ethyl formate	0.000965	0.00111	0.00138	0.00165	0.00193	0.00227	0.00299	0.00394	0.00449
in isobutanol	0.000204	0.000272	0.000344	0.000485	0.000587	0.000739	0.00107	0.00131	0.00161
in isopropanol	0.000153	0.000216	0.000261	0.000314	0.000481	0.000593	0.000833	0.00106	0.00137
in isopropyl acetate	0.000329	0.000423	0.00056	0.000886	0.00106	0.00145	0.00189	0.00241	0.00314
in methanol	0.000427	0.000575	0.000718	0.000908	0.001	0.00129	0.00171	0.0021	0.00271
in methyl acetate	0.000971	0.00121	0.00155	0.00183	0.0023	0.00267	0.0034	0.00406	0.00481
in n-butanol	0.000302	0.000407	0.000517	0.000643	0.000764	0.000939	0.00127	0.00143	0.00174
in n-propanol	0.000181	0.000268	0.000361	0.000561	0.000723	0.000994	0.0013	0.00166	0.00222
